{"source": "patent US8394789B2", "about": "“(Dihydro)pyrrolo[2,1-α]isoquinolines” (MSD Oss B.V., priority 2008, dated 2013)"}
{"target": "T1, human FSH receptor (Homo sapiens, UniProt P23945)", "T1 construct": "expressed in transfected cells", "T1 sequence (P23945 18-695)": "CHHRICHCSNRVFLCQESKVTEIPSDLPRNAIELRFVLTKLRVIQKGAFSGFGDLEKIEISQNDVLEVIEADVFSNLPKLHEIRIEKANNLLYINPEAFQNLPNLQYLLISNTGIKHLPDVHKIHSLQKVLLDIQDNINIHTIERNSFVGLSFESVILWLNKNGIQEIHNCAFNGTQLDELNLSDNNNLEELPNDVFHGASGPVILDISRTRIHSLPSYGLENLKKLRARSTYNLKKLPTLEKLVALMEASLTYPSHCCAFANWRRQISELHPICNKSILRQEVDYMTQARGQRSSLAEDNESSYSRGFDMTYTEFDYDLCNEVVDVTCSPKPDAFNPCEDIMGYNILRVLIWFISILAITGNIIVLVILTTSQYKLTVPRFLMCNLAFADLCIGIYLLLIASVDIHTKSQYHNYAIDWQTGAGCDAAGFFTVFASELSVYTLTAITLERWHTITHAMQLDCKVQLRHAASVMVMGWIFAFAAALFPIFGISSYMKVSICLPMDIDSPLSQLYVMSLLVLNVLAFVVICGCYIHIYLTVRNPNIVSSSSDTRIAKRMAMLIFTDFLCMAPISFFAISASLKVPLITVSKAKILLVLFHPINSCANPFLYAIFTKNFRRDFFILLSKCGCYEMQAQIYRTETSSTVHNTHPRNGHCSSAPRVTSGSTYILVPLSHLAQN", "assay": "hFSHRago (CHO luc): agonistic activity at the human FSH receptor expressed in CHO cells, CRE-luciferase reporter", "format": "cell-based", "settings": "CHO cells stably transfected with human FSH receptor and CRE/luciferase reporter; 4 hours of incubation", "units": {"EC50": "nM"}, "excerpt": "The term EC50 means the concentration of the test compound that elicits half-maximal (50%) stimulation compared to the compound's maximally attainable effect. The values can be determined e.g. in a cell line transfected with a FSH receptor gene and cotransfected with a cAMP responsive element/promoter directing the expression of a reporter gene. Values can be determined using the software program such as MathIQ (version 2.0, ID Business Solutions Limited).\nAgonistic activity of the compounds at the human FSH receptor was determined in Chinese Hamster Ovary (CHO) cells stably transfected with the human FSH receptor and cotransfected with a cAMP responsive element (CRE)/promoter directing the expression of a firefly luciferase reporter gene. […] Cells (7,500 cells/well of a 384 well plate) were incubated in Dulbecco' minimal essential F12 modified medium (Invitrogen), supplemented with 1 μg/ml bovine insulin, 5 μg/ml human apo-transferrin, 80 U/ml penicillin G and 80 μg/ml streptomycin with the test compounds (concentration between 0.0316 nM and 10.0 μM) in duplicate in a humidified atmosphere (95%) at 5-7% CO2 and 37° C. The final concentration of DMSO was 1%. After 4 hours of incubation, plates were allowed to adjust to room temperature for 1 hour. Then, Luclite (PerkinElmer) solution was added to the wells and cells were allowed to lyse for at least 1 hour at room temperature. Subsequently, luciferase activity was measured in a luminescence counter. The signal is expressed as counts per second (cps). The EC50 (concentration of the test compound that elicits half-maximal (50%) luciferase stimulation compared to the compound's maximally attainable effect) and efficacy values (maximal effect of the test compound as percentage of the maximal effect of recombinant human FSH) of the compounds were determined using the software program MathIQ (version 2.0, ID Business Solutions Limited)."}
{"smiles": "COc1cc2c(cc1OCCCOC1CCCCO1)-c1c(-c3cccs3)cc(C(=O)N(C)C(C)(C)C)n1CC2", "note": "(stereo not drawn) [Example 70c, 8-Methoxy-9-[3-(tetrahydro-pyran-2-yloxy)-propoxy]-1-thiophen-2-yl-5,6-dihydro-pyrrolo[2,1-α]isoquinoline-3-carboxylic acid tert-butyl-methyl-amide]", "EC50": 155}
{"smiles": "COc1cc2c(cc1OCCCO)-c1c(-c3cccs3)cc(C(=O)N(C)C(C)(C)C)n1CC2", "note": "[Example 70d, 9-(3-Hydroxy-propoxy)-8-methoxy-1-thiophen-2-yl-5,6-dihydro-pyrrolo[2,1-α]iso-quinoline-3-carboxylic acid tert-butyl-methyl-amide]", "EC50": 1.3}
{"smiles": "COc1cc2c(cc1OCCCN=[N+]=[N-])-c1c(-c3cccs3)cc(C(=O)N(C)C(C)(C)C)n1CC2", "note": "[Example 70f, 9-(3-Azido-propoxy)-8-methoxy-1-thiophen-2-yl-5,6-dihydro-pyrrolo[2,1-α]isoquinoline-3-carboxylic acid tert-butyl-methyl-amide]", "EC50": 10.9}
{"smiles": "COc1cc2c(cc1OCCCN)-c1c(-c3cccs3)cc(C(=O)N(C)C(C)(C)C)n1CC2", "note": "[Example 70g, 9-(3-Amino-propoxy)-8-methoxy-1-thiophen-2-yl-5,6-dihydro-pyrrolo[2,1-α]iso-quinoline-3-carboxylic acid tert-butyl-methyl-amide]", "EC50": 111}
{"smiles": "COc1cc2c(cc1OCCSC)-c1c(-c3cccs3)cc(C(=O)N(C)C(C)(C)C)n1CC2", "note": "[Example 71, 8-Methoxy-9-(2-methylsulfanyl-ethoxy)-1-thiophen-2-yl-5,6-dihydro-pyrrolo[2,1-α]isoquinoline-3-carboxylic acid tert-butyl-methyl-amide]", "EC50": 26.3}
{"smiles": "COc1cc2c(cc1OCCS(C)(=O)=O)-c1c(-c3cccs3)cc(C(=O)N(C)C(C)(C)C)n1CC2", "note": "[Example 72, 9-(2-Methanesulfonyl-ethoxy)-8-methoxy-1-thiophen-2-yl-5,6-dihydro-pyrrolo[2,1-α]isoquinoline-3-carboxylic acid tert-butyl-methyl-amide]", "EC50": 16.9}
{"smiles": "COc1cc2c(cc1OCCN(C)C)-c1c(-c3cccs3)cc(C(=O)N(C)C(C)(C)C)n1CC2", "note": "[Example 73, 9-(2-Dimethylamino-ethoxy)-8-methoxy-1-thiophen-2-yl-5,6-dihydro-pyrrolo[2,1-α]isoquinoline-3-carboxylic acid tert-butyl-methyl-amide; trifluoro acetic acid]", "EC50": 118}
{"smiles": "COc1cc2c(cc1OCC1CC1)-c1c(-c3cccs3)cc(C(=O)N3CCCN(C(C)=O)CC3)n1CC2", "note": "[Example 77, 1-[4-(9-Cyclopropylmethoxy-8-methoxy-1-thiophen-2-yl-5,6-dihydro-pyrrolo[2,1-α]iso-quinoline-3-carbonyl)-perhydro-1,4-diazepin-1-yl]-ethanone]", "EC50": 57.6}
{"smiles": "COc1cc2c(cc1OCC1CCCO1)-c1c(-c3cccs3)cc(C(=O)N3CCCN(C(C)=O)CC3)n1CC2", "note": "(stereo not drawn) [Example 78, 1-{4-[8-Methoxy-9-(tetrahydro-furan-2-ylmethoxy)-1-thiophen-2-yl-5,6-dihydro-pyrrolo[2,1-α]isoquinoline-3-carbonyl]-perhydro-1,4-diazepin-1-yl}-ethanone]", "EC50": 96.2}
{"smiles": "COc1cc2c(cc1OC1CCCC1)-c1c(-c3cccs3)cc(C(=O)N3CCCN(C(C)=O)CC3)n1CC2", "note": "[Example 79, 1-[4-(9-Cyclopentyloxy-8-methoxy-1-thiophen-2-yl-5,6-dihydro-pyrrolo[2,1-α]isoquinoline-3-carbonyl)-perhydro-1,4-diazepin-1-yl]-ethanone]", "EC50": 14.2}
{"smiles": "COc1cc2c(cc1OCCC(C)C)-c1c(-c3cccs3)cc(C(=O)N3CCCN(C(C)=O)CC3)n1CC2", "note": "[Example 80, 1-{4-[8-Methoxy-9-(3-methyl-butoxy)-1-thiophen-2-yl-5,6-dihydro-pyrrolo[2,1-α]isoquinoline-3-carbonyl]-perhydro-1,4-diazepin-1-yl}-ethanone]", "EC50": 101}
{"smiles": "COc1cc2c(cc1CC(C)C)-c1c(-c3cccs3)cc(C(=O)N(C)C(C)(C)CO)n1CC2", "note": "[Example 81, 9-Isobutyl-8-methoxy-1-thiophen-2-yl-5,6-dihydro-pyrrolo[2,1-α]isoquinoline-3-carboxylic acid (2-hydroxy-1,1-dimethyl-ethyl)-methyl-amide]", "EC50": 6}
{"smiles": "COC1=CC2CCn3c(C(=O)N4CCCN(C(=O)C5CCC5)CC4)cc(-c4cccs4)c3C2C=C1Br", "note": "(stereo not drawn) [Example 82, (9-Bromo-8-methoxy-1-thiophen-2-yl-5,6,6a,10a-tetrahydro-pyrrolo[2,1--α]isoquinolin-3-yl)-(4-cyclobutanecarbonyl-[1,4]diazepan-1-yl)-methanone]", "EC50": 5.8}
{"smiles": "COc1cc2c(cc1C#N)-c1c(-c3cccs3)cc(C(=O)N(C)C(C)(C)C)n1CC2", "note": "[Example 83, 9-Cyano-8-methoxy-1-thiophen-2-yl-5,6-dihydro-pyrrolo[2,1--α]isoquinoline-3-carboxylic acid tert-butyl-methyl-amide]", "EC50": 4.3}
{"smiles": "CCOC(=O)c1cc2c(cc1OC)CCn1c(C(=O)N3CCCN(C(=O)C4CCC4)CC3)cc(-c3cccs3)c1-2", "note": "[Example 84, 3-(4-Cyclobutanecarbonyl-[1,4]diazepane-1-carbonyl)-8-methoxy-1-thiophen-2-yl-5,6-dihydro-pyrrolo[2,1--α]isoquinoline-9-carboxylic acid ethyl ester]", "EC50": 2.9}
{"smiles": "COc1cc2c(cc1Br)-c1c(-c3cccs3)cc(C(=O)N(C)C(C)(C)C)n1CC2", "note": "[Example 85a, 9-Bromo-8-methoxy-1-thiophen-2-yl-5,6-dihydro-pyrrolo[2,1--α]isoquinoline-3-carboxylic acid tert-butyl-methyl-amide]", "EC50": 11.3}
{"smiles": "CC#Cc1cc2c(cc1OC)CCn1c(C(=O)N(C)C(C)(C)C)cc(-c3cccs3)c1-2", "note": "[Example 85b, 8-Methoxy-9-prop-1-ynyl-1-thiophen-2-yl-5,6-dihydro-pyrrolo[2,1--α]isoquinoline-3-carboxylic acid tert-butyl-methyl-amide]", "EC50": 2.7}
{"smiles": "COc1cc2c(cc1C(=O)N1CCOCC1)-c1c(-c3cccs3)cc(C(=O)N(C)C(C)(C)C)n1CC2", "note": "[Example 86]", "EC50": 69.4}
{"smiles": "COc1cc2c(cc1C(=O)NCCO)-c1c(-c3cccs3)cc(C(=O)N(C)C(C)(C)C)n1CC2", "note": "[Example 87, 8-Methoxy-1-thiophen-2-yl-5,6,6a,10a-tetrahydro-pyrrolo[2,1-α]isoquinoline-3,9-dicarboxylic acid 3-(tert-butyl-methyl-amide) 9-[(2-hydroxy-ethyl)-amide]]", "EC50": 23.9}
{"smiles": "CN(C(=O)c1cc(-c2cccs2)c2n1CCc1ccc(N3CCCC3=O)cc1-2)C(C)(C)C", "note": "[Example 88, 9-(2-Oxo-pyrrolidin-1-yl)-1-thiophen-2-yl-5,6-dihydro-pyrrolo[2,1-α]isoquinoline-3-carboxylic acid tert-butyl-methyl-amide]", "EC50": 310}
{"smiles": "CN(C(=O)c1cc(-c2cccs2)c2n1CCc1ccc(N3CCOC3=O)cc1-2)C(C)(C)C", "note": "[Example 89, 9-(2-Oxo-oxazolidin-3-yl)-1-thiophen-2-yl-5,6-dihydro-pyrrolo[2,1-α]isoquinoline-3-carboxylic acid tert-butyl-methyl-amide]", "EC50": 245}
{"smiles": "CN(C(=O)c1cc(-c2cccs2)c2n1CCc1ccc(N3CCNC3=O)cc1-2)C(C)(C)C", "note": "[Example 90, 9-(2-Oxo-imidazolidin-1-yl)-1-thiophen-2-yl-5,6-dihydro-pyrrolo[2,1-α]isoquinoline-3-carboxylic acid tert-butyl-methyl-amide]", "EC50": 218}
{"smiles": "COc1cc2c(cc1C=O)-c1c(-c3cccs3)cc(C(=O)N(C)C(C)(C)C)n1CC2", "note": "[Example 91a, 9-Formyl-8-methoxy-1-thiophen-2-yl-5,6-dihydro-pyrrolo[2,1-α]isoquinoline-3-carboxylic acid tert-butyl-methyl-amide]", "EC50": 6}
{"smiles": "COc1cc2c(cc1CCCO)-c1c(-c3cccs3)cc(C(=O)N(C)C(C)(C)C)n1CC2", "note": "[Example 91d, 9-(3-hydroxy-propyl)-8-methoxy-1-thiophen-2-yl-5,6-dihydro-pyrrolo[2,1-α]iso-quinoline-3-carboxylic acid tert-butyl-methyl-amide]", "EC50": 0.4}
{"smiles": "COc1cc2c(cc1C=C(F)F)-c1c(-c3cccs3)cc(C(=O)N(C)C(C)(C)C)n1CC2", "note": "[Example 93]", "EC50": 3}
{"smiles": "COc1cc2c(cc1[N+](=O)[O-])-c1c(-c3cccs3)cc(C(=O)N(C)C(C)(C)C)n1CC2", "note": "[Example 94, 8-Methoxy-9-nitro-1-thiophen-2-yl-5,6-dihydro-pyrrolo[2,1-α]isoquinoline-3-carboxylic acid tert-butyl-methyl-amide]", "EC50": 3}
{"smiles": "COc1cc2c(cc1N)-c1c(-c3cccs3)cc(C(=O)N(C)C(C)(C)C)n1CC2", "note": "[Example 95, 9-Amino-8-methoxy-1-thiophen-2-yl-5,6-dihydro-pyrrolo[2,1-α]isoquinoline-3-carboxylic acid tert-butyl-methyl-amide]", "EC50": 44.8}
{"smiles": "COc1cc2c(cc1NC(=O)CN(C)C)-c1c(-c3cccs3)cc(C(=O)N(C)C(C)(C)C)n1CC2", "note": "[Example 96, 9-(2-Dimethylamino-acetylamino)-8-methoxy-1-thiophen-2-yl-5,6,6 a,10a-tetrahydro-pyrrolo[2,1-α]isoquinoline-3-carboxylic acid tert-butyl-methyl-amide]", "EC50": 2.8}
